Measured values taken from ChEMBL document CHEMBL1129835, “Selective cytotoxicity of certain 9-substituted ellipticines for leukemia cells in a variety of leukemia cell cultures” (1997).

What was measured:
MDA-N [1] = experiment: Concentration for 50% cell kill against breast cancer MDA-N cell line was determined; assay type: functional; conditions: Homo sapiens, read-out: LC50 (the source's name)
T47D [2] = experiment: Cytotoxicity exhibited by the compound for total growth inhibition of breast cancer T-47D cell line; assay type: functional; conditions: Homo sapiens
IGROV-1 [3] = experiment: Cytotoxicity exhibited by the compound for total growth inhibition of ovarian cancer IGROV 1 cell line; assay type: functional; conditions: Homo sapiens
IGROV-1 [4] = experiment: The compound was evaluated for cytotoxicity against IGROV1 ovarian cancer cell line; assay type: functional; conditions: Homo sapiens
SR = experiment: Effective dose to show cytotoxicity against leukemia SR cell line was determined; assay type: functional; conditions: Homo sapiens, read-out: ED50 (the source's name)
SN12C = experiment: Concentration for 50% cell kill against renal cancer SN12C cell line was determined; assay type: functional; conditions: Homo sapiens, read-out: LC50 (the source's name)
RPMI-8226 = experiment: Effective dose to show cytotoxicity against leukemia RPMI-8226 cell line was determined; assay type: functional; conditions: Homo sapiens, read-out: ED50 (the source's name)
MDA-N [5] = experiment: The compound was evaluated for cytotoxicity against MDA-N breast cancer cell line; assay type: functional; conditions: Homo sapiens
NCI-H23 [6] = experiment: Concentration for 50% cell kill against non-small cell lung cancer NCI-H23 cell line was determined; assay type: functional; conditions: Homo sapiens, read-out: LC50 (the source's name)
CCRF-CEM [7] = experiment: Cytotoxicity exhibited by the compound for total growth inhibition of leukemia CCRF-CEM cell line; assay type: functional; conditions: Homo sapiens
COLO 205 [8] = experiment: Effective dose to show cytotoxicity against colon cancer COLO 205 cell line was determined; assay type: functional; conditions: Homo sapiens, read-out: ED50 (the source's name)
NCI-H23 [9] = experiment: Cytotoxicity exhibited by the compound for total growth inhibition of non-small cell lung cancer NCI-H23 cell line; assay type: functional; conditions: Homo sapiens
U-251 [10] = experiment: The compound was evaluated for cytotoxicity against U251 CNS cancer cell line; assay type: functional; conditions: Homo sapiens
NCI-H322M [11] = experiment: Effective dose to show cytotoxicity against non-small cell lung cancer NCI-H322M cell line was determined; assay type: functional; conditions: Homo sapiens, read-out: ED50 (the source's name)
SNB-19 [12] = experiment: Effective dose to show cytotoxicity against CNS cancer SNB-19 cell line was determined; assay type: functional; conditions: Homo sapiens, read-out: ED50 (the source's name)
MDA-MB-453 = experiment: Concentration for 50% cell kill against breast cancer MDA-MB-435 cell line was determined; assay type: functional; conditions: Homo sapiens, read-out: LC50 (the source's name)
OVCAR-8 = experiment: Cytotoxicity exhibited by the compound for total growth inhibition of ovarian cancer OVCAR-8 cell line; assay type: functional; conditions: Homo sapiens
MDA-N [13] = experiment: Effective dose to show cytotoxicity against breast cancer MDA-N cell line was determined; assay type: functional; conditions: Homo sapiens, read-out: ED50 (the source's name)
T47D [14] = experiment: Effective dose to show cytotoxicity against breast cancer T-47D cell line was determined; assay type: functional; conditions: Homo sapiens, read-out: ED50 (the source's name)
CAKI-1 = experiment: Effective dose to show cytotoxicity against renal cancerCAKI-1 cell line was determined; assay type: functional; conditions: Homo sapiens, read-out: ED50 (the source's name)
SNB-75 = experiment: Concentration for 50% cell kill against CNS cancer SNB-75 cell line was determined; assay type: functional; conditions: Homo sapiens, read-out: LC50 (the source's name)
Malme-3M [15] = experiment: Cytotoxicity exhibited by the compound for total growth inhibition of melanoma MALME-3M cell line; assay type: functional; conditions: Homo sapiens
MDA-N [16] = experiment: Cytotoxicity exhibited by the compound for total growth inhibition of breast cancer MDA-N cell line; assay type: functional; conditions: Homo sapiens
COLO 205 [17] = experiment: Concentration for 50% cell kill against colon cancer COLO 205 cell line was determined; assay type: functional; conditions: Homo sapiens, read-out: LC50 (the source's name)
LOX IMVI [18] = experiment: Effective dose to show cytotoxicity against melanomaLOX IMVI cell line was determined; assay type: functional; conditions: Homo sapiens, read-out: ED50 (the source's name)
NCI-H522 [19] = experiment: Concentration for 50% cell kill against non-small cell lung cancer NCI-H522 cell line was determined; assay type: functional; conditions: Homo sapiens, read-out: LC50 (the source's name)
KM12 [20] = experiment: Concentration for 50% cell kill against colon cancer KM-12 cell line was determined; assay type: functional; conditions: Homo sapiens, read-out: LC50 (the source's name)
PC-3 [21] = experiment: Effective dose to show cytotoxicity against prostate cancer PC-3 cell line was determined; assay type: functional; conditions: Homo sapiens, read-out: ED50 (the source's name)
LOX IMVI [22] = experiment: Cytotoxicity exhibited by the compound for total growth inhibition of melanoma LOX IMVI cell line; assay type: functional; conditions: Homo sapiens
PC-3 [23] = experiment: The compound was evaluated for cytotoxicity against PC-3 prostate cancer cell line; assay type: functional; conditions: Homo sapiens
SNB-19 [24] = experiment: Concentration for 50% cell kill against CNS cancer SNB-19 cell line was determined; assay type: functional; conditions: Homo sapiens, read-out: LC50 (the source's name)
U-251 [25] = experiment: Effective dose to show cytotoxicity against CNS cancer U251 cell line was determined; assay type: functional; conditions: Homo sapiens, read-out: ED50 (the source's name)
RXF 393 = experiment: Cytotoxicity exhibited by the compound for total growth inhibition of renal cancer RXF 393 cell line; assay type: functional; conditions: Homo sapiens
MOLT-4 [26] = experiment: Concentration for 50% cell kill against leukemia MOLT-4 cell line was determined; assay type: functional; conditions: Homo sapiens, read-out: LC50 (the source's name)
IGROV-1 [27] = experiment: Concentration for 50% cell kill against ovarian cancer IGROV 1 cell line was determined; assay type: functional; conditions: Homo sapiens, read-out: LC50 (the source's name)
CCRF-CEM [28] = experiment: Concentration for 50% cell kill against leukemia CCRF-CEM cell line was determined; assay type: functional; conditions: Homo sapiens, read-out: LC50 (the source's name)
KM12 [29] = experiment: Cytotoxicity exhibited by the compound for total growth inhibition of colon cancer KM-12 cell line; assay type: functional; conditions: Homo sapiens
NCI-H23 [30] = experiment: Effective dose to show cytotoxicity against non-small cell lung cancer NCI-H23 cell line was determined; assay type: functional; conditions: Homo sapiens, read-out: ED50 (the source's name)
U-251 [31] = experiment: Cytotoxicity exhibited by the compound for total growth inhibition of CNS cancer U251 cell line; assay type: functional; conditions: Homo sapiens
MOLT-4 [32] = experiment: Effective dose to show cytotoxicity against leukemia MOLT-4 cell line was determined; assay type: functional; conditions: Homo sapiens, read-out: ED50 (the source's name)
NCI-H522 [33] = experiment: Effective dose to show cytotoxicity against non-small cell lung cancer NCI-H522 cell line was determined; assay type: functional; conditions: Homo sapiens, read-out: ED50 (the source's name)
OVCAR-3 [34] = experiment: Concentration for 50% cell kill against ovarian cancerOVCAR-3 cell line was determined; assay type: functional; conditions: Homo sapiens, read-out: LC50 (the source's name)
Malme-3M [35] = experiment: Effective dose to show cytotoxicity against melanoma MALME-3M cell line was determined; assay type: functional; conditions: Homo sapiens, read-out: ED50 (the source's name)
OVCAR-3 [36] = experiment: Effective dose to show cytotoxicity against ovarian cancer OVCAR-3 cell line was determined; assay type: functional; conditions: Homo sapiens, read-out: ED50 (the source's name)
DU-145 = experiment: Cytotoxicity exhibited by the compound for total growth inhibition of prostate cancer DU-145 cell line; assay type: functional; conditions: Homo sapiens
NCI-H322M [37] = experiment: The compound was evaluated for cytotoxicity against NCI-H322M non-small cell lung cancer cell line; assay type: functional; conditions: Homo sapiens
[38] = system: MDA-MB-435 (Homo sapiens); experiment: Effective dose to show cytotoxicity against breast cancer MDA-MB-435 cell line was determined; conditions: read-out: ED50 (the source's name)

Question: For `Cc1c2ccncc2c(C)c2c1[nH]c1ccc(CO)cc12`, which CC50 (MDA-N [1]) is on record?
Answer: 4330 nM

Question: What about the TGI (T47D [2]) of the same molecule?
Answer: 18400 nM

Question: And the TGI (IGROV-1 [3])?
Answer: 11700 nM

Question: And the GI50 (IGROV-1 [4])?
Answer: 180 nM

Question: And the EC50 (SR)?
Answer: 40 nM

Question: And the CC50 (SN12C)?
Answer: 1910 nM

Question: And the EC50 (RPMI-8226)?
Answer: 30 nM

Question: What about the GI50 (MDA-N [5]) of the same molecule?
Answer: 350 nM

Question: What about the CC50 (NCI-H23 [6]) of the same molecule?
Answer: 79000 nM

Question: What about the TGI (CCRF-CEM [7]) of the same molecule?
Answer: 1010 nM

Question: What about the EC50 (COLO 205 [8]) of the same molecule?
Answer: 240 nM

Question: What about the TGI (NCI-H23 [9]) of the same molecule?
Answer: 9440 nM

Question: What about the GI50 (U-251 [10]) of the same molecule?
Answer: 280 nM

Question: What about the EC50 (NCI-H322M [11]) of the same molecule?
Answer: 620 nM

Question: And the EC50 (SNB-19 [12])?
Answer: 210 nM

Question: And the CC50 (MDA-MB-453)?
Answer: 6020 nM

Question: And the TGI (OVCAR-8)?
Answer: 11300 nM

Question: What about the EC50 (MDA-N [13]) of the same molecule?
Answer: 350 nM

Question: And the EC50 (T47D [14])?
Answer: 1420 nM

Question: What about the EC50 (CAKI-1) of the same molecule?
Answer: 370 nM

Question: And the CC50 (SNB-75)?
Answer: 14900 nM

Question: And the TGI (Malme-3M [15])?
Answer: 7350 nM

Question: What about the TGI (MDA-N [16]) of the same molecule?
Answer: 1690 nM

Question: And the CC50 (COLO 205 [17])?
Answer: 10200 nM

Question: And the EC50 (LOX IMVI [18])?
Answer: 370 nM

Question: What about the CC50 (NCI-H522 [19]) of the same molecule?
Answer: > 100000 nM

Question: What about the CC50 (KM12 [20]) of the same molecule?
Answer: 7380 nM

Question: And the EC50 (PC-3 [21])?
Answer: 450 nM

Question: What about the TGI (LOX IMVI [22]) of the same molecule?
Answer: 3030 nM

Question: What about the GI50 (PC-3 [23]) of the same molecule?
Answer: 450 nM

Question: What about the CC50 (SNB-19 [24]) of the same molecule?
Answer: 56200 nM

Question: And the EC50 (U-251 [25])?
Answer: 280 nM

Question: And the TGI (RXF 393)?
Answer: 3890 nM

Question: And the CC50 (MOLT-4 [26])?
Answer: 4090 nM

Question: What about the CC50 (IGROV-1 [27]) of the same molecule?
Answer: 62000 nM

Question: What about the CC50 (CCRF-CEM [28]) of the same molecule?
Answer: > 100000 nM

Question: What about the TGI (KM12 [29]) of the same molecule?
Answer: 1520 nM

Question: What about the EC50 (NCI-H23 [30]) of the same molecule?
Answer: 680 nM

Question: And the TGI (U-251 [31])?
Answer: > 100000 nM

Question: What about the EC50 (MOLT-4 [32]) of the same molecule?
Answer: 10 nM

Question: And the EC50 (NCI-H522 [33])?
Answer: 300 nM

Question: What about the CC50 (OVCAR-3 [34]) of the same molecule?
Answer: 46200 nM

Question: And the EC50 (Malme-3M [35])?
Answer: 640 nM

Question: What about the EC50 (OVCAR-3 [36]) of the same molecule?
Answer: 700 nM

Question: And the TGI (DU-145)?
Answer: 11900 nM

Question: What about the GI50 (NCI-H322M [37]) of the same molecule?
Answer: 620 nM

Question: What about the EC50 [38] of the same molecule?
Answer: 240 nM
